The text below walks through data of patent publication US10507228B2, “Methods and compositions related to KRAS inhibitors” (priority 2015, dated 2019).

Positions of bridges follow the written chain, without caps; N, C: chain ends. Non-standard residues stand in square brackets, D forms with d. Residues, ends and D or L forms follow the SMILES beside them. ξ: configuration not given here. ξK = NCCCCC(N)C(=O)O; ξA = CC(N)C(=O)O

The target of this assay is T1, mt G12D KRas binding to GST-RBD (Raf Ras binding domain) (Homo sapiens, UniProt P01116, G12D).
T1 construct: expressed in transfected cells; host or cells: NIH-3T3 cells (lysate)
Put plainly: GST-RBD pulldown assay. Particulars: lysates of NIH-3T3 cells that ectopically express G12D KRas; compared to DMSO control; FIG. 1B. Here is the method:
Several stapled peptides such as FY-A-100-1 and 2 have been made (see FIG. 1A) that were designed based on the helical domain (78-92, LHDCLMKALKVRGLQ) (SEQ ID NO. 1) of Raf RBD (Ras binding domain). The synthesis was conducted on solid phase. In GST-RBD pulldown assays, FY-A-100-1 was potent at inhibiting the ability of GST-RBD to bind mt G12D KRas from lysates of NIH-3T3 cells that ectopically express G12D KRas (FIG. 1B). […] Furthermore, FY-A-90-1A, which is identical to FY-A-100-1 except for having a “CH2” shorter side chain of residue 82 that forms the staple, was not active.
With `CSCC[C@H](NC(=O)[C@H](CC(=O)O)NC(=O)[C@H](CS)NC(=O)[C@H](CC(=O)O)NC(=O)[C@H](Cc1cnc[nH]1)NC(=O)[C@@H](N)CC(C)C)C(=O)N[C@@H](CCCCN)C(=O)NC(C)C(=O)N[C@@H](CCCCN)C(=O)NC(CCCCN)C(=O)N[C@H](C(=O)N[C@@H](CCCNC(=N)N)C(=O)NCC(=O)N[C@@H](CC(C)C)C(=O)N[C@@H](CCC(N)=O)C(N)=O)C(C)C` (stereo partly drawn) [FY-A-90-2B] (H-LHDCDMK[ξA]K[ξK]VRGLQ-NH2), the “inhibiting the ability of GST-RBD to bind mt G12D KRas” value (from here on “inhibiting the ability of GST-RBD”) is reported as “little activity”.
For `CSCC[C@@H]1NC(=O)[C@@H](NC(=O)[C@H](CS)NC(=O)[C@H](CC(=O)O)NC(=O)[C@H](Cc2cnc[nH]2)NC(=O)[C@@H](N)CC(C)C)CC(=O)NCCCC[C@@H](C(=O)NC(CCCCN)C(=O)N[C@H](C(=O)N[C@@H](CCCNC(=N)N)C(=O)NCC(=O)N[C@@H](CC(C)C)C(=O)N[C@@H](CCC(N)=O)C(N)=O)C(C)C)NC(=O)C(CCCCN)NC(=O)[C@H](CCCCN)NC1=O` (stereo partly drawn) [FY-A-90-1A] (H-LHDCDMK[ξK]K[ξK]VRGLQ-NH2; lactam 5-9), the “inhibiting the ability of GST-RBD” value is given as “not active”.
Then `CSCC[C@H](NC(=O)[C@H](CC(=O)O)NC(=O)[C@H](CS)NC(=O)[C@H](CC(=O)O)NC(=O)[C@H](Cc1cnc[nH]1)NC(=O)[C@@H](N)CC(C)C)C(=O)N[C@@H](CCCCN)C(=O)NC(CCCCN)C(=O)N[C@@H](CCCCN)C(=O)NC(CCCCN)C(=O)N[C@H](C(=O)N[C@@H](CCCNC(=N)N)C(=O)NCC(=O)N[C@@H](CC(C)C)C(=O)N[C@@H](CCC(N)=O)C(N)=O)C(C)C` (stereo partly drawn) [FY-A-90-1B] (H-LHDCDMK[ξK]K[ξK]VRGLQ-NH2), with “little activity”; and `CSCC[C@@H]1NC(=O)[C@@H](NC(=O)[C@H](CS)NC(=O)[C@H](CC(=O)O)NC(=O)[C@H](Cc2cnc[nH]2)NC(=O)[C@@H](N)CC(C)C)CCC(=O)NCCCC[C@@H](C(=O)N[C@@H](CCCCN)C(=O)N[C@H](C(=O)N[C@@H](CCCNC(=N)N)C(=O)NCC(=O)N[C@@H](CC(C)C)C(=O)N[C@@H](CCC(N)=O)C(N)=O)C(C)C)NC(=O)[C@H](CCCCN)NC(=O)[C@H](CCCCN)NC1=O` [FY-A-100-1] (H-LHDCEMKKKKVRGLQ-NH2; lactam 5-9), with “potent”.
Take `CSCC[C@@H]1NC(=O)[C@@H](NC(=O)[C@H](CS)NC(=O)[C@H](CC(=O)O)NC(=O)[C@H](Cc2cnc[nH]2)NC(=O)[C@@H](N)CC(C)C)CC(=O)NCCCC[C@@H](C(=O)NC(CCCCN)C(=O)N[C@H](C(=O)N[C@@H](CCCNC(=N)N)C(=O)NCC(=O)N[C@@H](CC(C)C)C(=O)N[C@@H](CCC(N)=O)C(N)=O)C(C)C)NC(=O)C(C)NC(=O)[C@H](CCCCN)NC1=O` (stereo partly drawn) [FY-A-90-2A] (H-LHDCDMK[ξA]K[ξK]VRGLQ-NH2; lactam 5-9): the “inhibiting the ability of GST-RBD” value is recorded as “little activity”.
Then `CSCC[C@@H]1NC(=O)[C@@H](NC(=O)[C@H](CS)NC(=O)[C@H](CC(=O)O)NC(=O)[C@H](Cc2cnc[nH]2)NC(=O)[C@@H](N)CC(C)C)CCC(=O)NCCCC[C@@H](C(=O)N[C@@H](CCCCN)C(=O)N[C@H](C(=O)N[C@@H](CCCNC(=N)N)C(=O)NCC(=O)N[C@@H](CC(C)C)C(=O)N[C@@H](CCC(N)=O)C(N)=O)C(C)C)NC(=O)C(C)NC(=O)[C@H](CCCCN)NC1=O` (stereo partly drawn) [FY-A-100-2] (H-LHDCEMK[ξA]KKVRGLQ-NH2; lactam 5-9), with “less potent”.
